Reference: US20070281857A1, “FORMIC ACID AS AN HERBICIDE” (MARRONE ORGANIC INNOVATIONS, priority 2006, published 2007)
Read-outs that look alike come from different tables or passages of the source.

Experiments:
[1] = test system: Lactuca sativa (lettuce) seed; settings: stepwise dilution series from 25% to 0%
From the text: Numerous natural compounds were screened for their ability to inhibit the germination of dicot seeds. A single seed of Lactuca sativa (lettuce) was placed in each well of a 96-well plate followed by a solution of each compound in a stepwise dilution series from 25% to 0%. Germination was monitored daily.

[2] = test system: Seedlings of Lactuca sativa (lettuce)
Method: A high-throughput 96-well assay was used to test the efficacy of formic acid as a post-emergence, non-selective herbicide. Seedlings of Lactuca sativa (lettuce) were grown in 96-well plates under continuous light. Formic acid was added on the seedlings at a 5x-dilution series from 20% to 0%, and the minimum concentration needed for killing the seedling was recorded the next day.

[3] = test system: Taraxacum officinale (dandelion); settings: for germination rate (%) dandelion: one week, compared with control
Method: (§1) Pots with 3-cm diameter were filled with 60 mL of silt clay loam soil passed through a 2-mm sieve, and five (5) seeds of either Taraxacum officinale (dandelion, representing a broadleaved weed) or Poa annua (annual bluegrass, representing a grass weed) were planted on the top. A solid form of the composition containing corn gluten meal granules (>2 mm diameter) soaked in 0%, 10%, 15% or 20% formic acid solution and dried were placed on the top of the soil at rates 0.1, 0.25, 0.5 and 1.0 g/pot. The pots were kept at optimum water content under growth lights with a 12-h light/dark period at room temperature, and the number of germinated seeds was counted after one week.

[4] = test system: Poa annua (annual bluegrass); settings: for germination rate (%) annual bluegrass: one week, compared with control
Method: as §1

[5] = 10% formic acid in corn gluten meal granules >2 mm, 0.1 g/pot
[6] = 10% formic acid in corn gluten meal granules >2 mm, 0.25 g/pot
[7] = 10% formic acid in corn gluten meal granules >2 mm, 0.5 g/pot
[8] = 10% formic acid in corn gluten meal granules >2 mm, 1 g/pot
[9] = 15% formic acid in corn gluten meal granules >2 mm, 0.1 g/pot
[10] = 15% formic acid in corn gluten meal granules >2 mm, 0.25 g/pot
[11] = 15% formic acid in corn gluten meal granules >2 mm, 0.5 g/pot
[12] = 15% formic acid in corn gluten meal granules >2 mm, 1 g/pot
[13] = 20% formic acid in corn gluten meal granules >2 mm, 0.1 g/pot
[14] = 20% formic acid in corn gluten meal granules >2 mm, 0.25 g/pot
[15] = 20% formic acid in corn gluten meal granules >2 mm, 0.5 g/pot
[16] = 20% formic acid in corn gluten meal granules >2 mm, 1 g/pot
[17] = bigger granules (>2 mm) imbedded in 15% formic acid

In the case of `O=CO` [Formic acid], the “threshold value to inhibit germination of seeds” value [1] is reported as 0.0013%, the “minimum concentration needed for killing the seedling” value ([2]; 5x-dilution series from 20% to 0%, recorded the next day) is reported as 0.8% and the “effect on lettuce seedling” value ([2]; formic acid 0.16%, next day) is reported as “not harmful for the plant”. For the same molecule, the “germination rate (%) dandelion” value [3, 5] was 60%, the “germination rate (%) dandelion” value [3, 6] was 30% and the “germination rate (%) dandelion” value [3, 7] was 30%. The “germination rate (%) dandelion” value [3, 8] was 0%, the “germination rate (%) dandelion” value [3, 9] was 30% and the “germination rate (%) dandelion” value [3, 10] was 30%. The “germination rate (%) dandelion” value [3, 11] was 30%, the “germination rate (%) dandelion” value [3, 12] was 0% and the “germination rate (%) dandelion” value [3, 13] was 0%. The “germination rate (%) dandelion” value [3, 14] was 0%, the “germination rate (%) dandelion” value [3, 15] was 0% and the “germination rate (%) dandelion” value [3, 16] was 0%. The “control of a broadleaved weed” value [3, 17] was “complete control”, the “germination rate (%) annual bluegrass” value [4, 5] was 100% and the “germination rate (%) annual bluegrass” value [4, 6] was 100%. For the same molecule, the “germination rate (%) annual bluegrass” value [4, 7] was 30%, the “germination rate (%) annual bluegrass” value [4, 8] was 100% and the “germination rate (%) annual bluegrass” value [4, 9] was 0%. The “germination rate (%) annual bluegrass” value [4, 10] was 0%, the “germination rate (%) annual bluegrass” value [4, 11] was 0% and the “germination rate (%) annual bluegrass” value [4, 12] was 100%. For the same molecule, the “germination rate (%) annual bluegrass” value [4, 13] was 100%, the “germination rate (%) annual bluegrass” value [4, 14] was 100% and the “germination rate (%) annual bluegrass” value [4, 15] was 100%. The “germination rate (%) annual bluegrass” value [4, 16] was 100% and the “control of the grass seed germination” value [4, 17] was “not effective”.
